# Measured values taken from patent publication US10584124B2, “Crystalline forms” (Array BioPharma Inc., priority 2017, dated 2020).
# Like-named read-outs stand apart in the source and are kept apart here.
# Key:
# [1] = Solubility of the free base of the compound of Formula I in solvents and mixed solvent systems; assay type: physicochemical; settings: for solubility: thermodynamic from solid
# Procedure: The solubility was also determined in mixed solvent systems such as DCM/EtOH, DMSO/EtOH, DMSO/water, THF/EtOH, and THF/water.
# The solubility studies were conducted as follows. […] The samples were then heated to 60° C. Should the solids dissolve on heating, more freebase was added in 3 to 5 mg portions.
# [2] = Screen of conditions for sulfuric and phosphoric acid salts of Formula I (freebase solubility observations); assay type: physicochemical; settings: 25° C.
# Text: The use of sulfuric acid in 4:1 DCM/EtOH provided a filterable solid after stirring overnight.
smiles,measurement,setting,value
"COc1ccc(CN2CCN(c3ccc(-c4cc(-c5cnn(C)c5)cn5ncc(C#N)c45)cn3)CC2)cn1 [freebase of the compound of Formula I, 4-(6-(4-((6-methoxypyridin-3-yl)methyl)piperazin-1-yl)pyridin-3-yl)-6-(1-methyl-1H-pyrazol-4-yl)pyrazolo[1,5-a]pyridine-3-carbonitrile]",solubility,"[1]; 0.1M HCl, 25 °C, simulated gastric fluid, read-out: Solubility at 25° C.",1.5 mg/mL
same,solubility,"[1]; 10% THF in H2O, 25 °C, aqueous with cosolvent or surfactant or cyclodextrin, title: THF/H2O at room temperature, head: % THF in EtOH = 10, read-out: Solubility",0.15 mg/mL
same,solubility,"[1]; 20% THF in H2O, 25 °C, aqueous with cosolvent or surfactant or cyclodextrin, title: THF/H2O at room temperature, head: % THF in EtOH = 20, read-out: Solubility",0.13 mg/mL
same,solubility,"[1]; 25 °C, aqueous with cosolvent or surfactant or cyclodextrin, 20% DMSO in H2O, room temperature, read-out: Solubility",0.08 mg/mL
same,solubility,"[1]; 25 °C, aqueous with cosolvent or surfactant or cyclodextrin, 30% DMSO in H2O, room temperature, read-out: Solubility",0.09 mg/mL
same,solubility,"[1]; 25 °C, aqueous with cosolvent or surfactant or cyclodextrin, 40% DMSO in H2O, room temperature, read-out: Solubility",0.1 mg/mL
same,solubility,"[1]; 25 °C, aqueous with cosolvent or surfactant or cyclodextrin, 50% DMSO in H2O, room temperature, read-out: Solubility",0.09 mg/mL
same,solubility,"[1]; 25 °C, aqueous with cosolvent or surfactant or cyclodextrin, 60% DMSO in H2O, room temperature, read-out: Solubility",0.1 mg/mL
same,solubility,"[1]; 25 °C, aqueous with cosolvent or surfactant or cyclodextrin, 70% DMSO in H2O, room temperature, read-out: Solubility",0.15 mg/mL
same,solubility,"[1]; 25 °C, aqueous with cosolvent or surfactant or cyclodextrin, 80% DMSO in H2O, room temperature, read-out: Solubility",0.35 mg/mL
same,solubility,"[1]; 25 °C, aqueous with cosolvent or surfactant or cyclodextrin, 90% DMSO in H2O, room temperature, read-out: Solubility",1.52 mg/mL
same,solubility,"[1]; 25 °C, organic solvent or mixture, 20% DCM in EtOH, room temperature, read-out: Solubility",0.26 mg/mL
same,solubility,"[1]; 25 °C, organic solvent or mixture, 20% DMSO in EtOH, room temperature, read-out: Solubility",0.18 mg/mL
same,solubility,"[1]; 25 °C, organic solvent or mixture, 20% THF in EtOH, room temperature, read-out: Solubility",0.34 mg/mL
same,solubility,"[1]; 25 °C, organic solvent or mixture, 30% DCM in EtOH, room temperature, read-out: Solubility",0.87 mg/mL
same,solubility,"[1]; 25 °C, organic solvent or mixture, 30% DMSO in EtOH, room temperature, read-out: Solubility",0.39 mg/mL
same,solubility,"[1]; 25 °C, organic solvent or mixture, 30% THF in EtOH, room temperature, read-out: Solubility",0.55 mg/mL
same,solubility,"[1]; 25 °C, organic solvent or mixture, 40% DCM in EtOH, room temperature, read-out: Solubility",2.53 mg/mL
same,solubility,"[1]; 25 °C, organic solvent or mixture, 40% DMSO in EtOH, room temperature, read-out: Solubility",0.61 mg/mL
same,solubility,"[1]; 25 °C, organic solvent or mixture, 40% THF in EtOH, room temperature, read-out: Solubility",0.82 mg/mL
same,solubility,"[1]; 25 °C, organic solvent or mixture, 50% DCM in EtOH, room temperature, read-out: Solubility",7.42 mg/mL
same,solubility,"[1]; 25 °C, organic solvent or mixture, 50% DMSO in EtOH, room temperature, read-out: Solubility",1.14 mg/mL
same,solubility,"[1]; 25 °C, organic solvent or mixture, 50% THF in EtOH, room temperature, read-out: Solubility",1.38 mg/mL
same,solubility,"[1]; 25 °C, organic solvent or mixture, 60% DCM in EtOH, room temperature, read-out: Solubility",16.6 mg/mL
same,solubility,"[1]; 25 °C, organic solvent or mixture, 60% DMSO in EtOH, room temperature, read-out: Solubility",1.8 mg/mL
same,solubility,"[1]; 25 °C, organic solvent or mixture, 60% THF in EtOH, room temperature, read-out: Solubility",1.97 mg/mL
same,solubility,"[1]; 25 °C, organic solvent or mixture, 70% DCM in EtOH, room temperature, read-out: Solubility",22.7 mg/mL
same,solubility,"[1]; 25 °C, organic solvent or mixture, 70% DMSO in EtOH, room temperature, read-out: Solubility",2.57 mg/mL
same,solubility,"[1]; 25 °C, organic solvent or mixture, 70% THF in EtOH, room temperature, read-out: Solubility",2.51 mg/mL
same,solubility,"[1]; 25 °C, organic solvent or mixture, 80% DCM in EtOH, room temperature, read-out: Solubility",29 mg/mL
same,solubility,"[1]; 25 °C, organic solvent or mixture, 80% DMSO in EtOH, room temperature, read-out: Solubility",4.28 mg/mL
same,solubility,"[1]; 25 °C, organic solvent or mixture, 80% THF in EtOH, room temperature, read-out: Solubility",3.09 mg/mL
same,solubility,"[1]; 25 °C, organic solvent or mixture, 90% DCM in EtOH, room temperature, read-out: Solubility",34.2 mg/mL
same,solubility,"[1]; 25 °C, organic solvent or mixture, 90% DMSO in EtOH, room temperature, read-out: Solubility",4.44 mg/mL
same,solubility,"[1]; 25 °C, organic solvent or mixture, 90% THF in EtOH, room temperature, read-out: Solubility",3.18 mg/mL
same,solubility,"[1]; 25 °C, organic solvent or mixture, 100% DMSO in EtOH, room temperature, read-out: Solubility",6.96 mg/mL
same,solubility,"[1]; 30% THF in H2O, 25 °C, aqueous with cosolvent or surfactant or cyclodextrin, title: THF/H2O at room temperature, head: % THF in EtOH = 30, read-out: Solubility",0.35 mg/mL
same,solubility,"[1]; 40% THF in H2O, 25 °C, aqueous with cosolvent or surfactant or cyclodextrin, title: THF/H2O at room temperature, head: % THF in EtOH = 40, read-out: Solubility",1.36 mg/mL
same,solubility,"[1]; 50% THF in H2O, 25 °C, aqueous with cosolvent or surfactant or cyclodextrin, title: THF/H2O at room temperature, head: % THF in EtOH = 50, read-out: Solubility",2.5 mg/mL
same,solubility,"[1]; 60% THF in H2O, 25 °C, aqueous with cosolvent or surfactant or cyclodextrin, title: THF/H2O at room temperature, head: % THF in EtOH = 60, read-out: Solubility",3.76 mg/mL
same,solubility,"[1]; 70% THF in H2O, 25 °C, aqueous with cosolvent or surfactant or cyclodextrin, title: THF/H2O at room temperature, head: % THF in EtOH = 70, read-out: Solubility",6.17 mg/mL
same,solubility,"[1]; 80% THF in H2O, 25 °C, aqueous with cosolvent or surfactant or cyclodextrin, title: THF/H2O at room temperature, head: % THF in EtOH = 80, read-out: Solubility",6.65 mg/mL
same,solubility,"[1]; 90% THF in H2O, 25 °C, aqueous with cosolvent or surfactant or cyclodextrin, title: THF/H2O at room temperature, head: % THF in EtOH = 90, read-out: Solubility",6.56 mg/mL
same,solubility,"[1]; 100% DMSO (DMSO/H2O series), 25 °C, organic solvent or mixture, 100% DMSO in H2O, room temperature, read-out: Solubility",6.96 mg/mL
same,solubility,"[1]; 100% THF (THF/EtOH series), 25 °C, organic solvent or mixture, 100% THF in EtOH, room temperature, read-out: Solubility",2.59 mg/mL
same,solubility,"[1]; 100% THF (THF/H2O series), 25 °C, organic solvent or mixture, title: THF/H2O at room temperature, head: % THF in EtOH = 100, read-out: Solubility",2.59 mg/mL
same,Solids dissolve at 60° C.?,[1]; ACN,No
same,solubility,"[1]; ACN, 25 °C, organic solvent or mixture, read-out: Solubility at 25° C.",0.33 mg/mL
same,solubility,"[1]; DCE, 25 °C, organic solvent or mixture, read-out: Solubility at 25° C.",4.6 mg/mL
same,Solids dissolve at 60° C.?,[1]; EtOAc,No
same,solubility,"[1]; EtOAc, 25 °C, organic solvent or mixture, read-out: Solubility at 25° C.",0.36 mg/mL
same,Solids dissolve at 60° C.?,[1]; EtOH,No
same,solubility,"[1]; EtOH, 25 °C, organic solvent or mixture, read-out: Solubility at 25° C.",0.04 mg/mL
same,Solids dissolve at 60° C.?,[1]; IPA,No
same,Solids dissolve at 60° C.?,[1]; MEK,No
same,solubility,"[1]; MEK, 25 °C, organic solvent or mixture, read-out: Solubility at 25° C.",0.69 mg/mL
same,Solids dissolve at 60° C.?,[1]; MeOH,No
same,solubility,"[1]; MeOH, 25 °C, organic solvent or mixture, read-out: Solubility at 25° C.",0.07 mg/mL
same,Solids dissolve at 60° C.?,[1]; THF,Yes
same,freebase dissolved in THF at 60° C.,"[1]; THF (1 mL), 60° C., solution turned milky at 13 mg",10 to 13 mg
same,Solids dissolve at 60° C.?,[1]; acetone,No
same,solubility,"[1]; acetone, 25 °C, organic solvent or mixture, read-out: Solubility at 25° C.",0.44 mg/mL
same,solubility,"[1]; aqueous with cosolvent or surfactant or cyclodextrin, 10% DMSO in H2O, room temperature, read-out: Solubility",0.09 mg/mL
same,Solids dissolve at 60° C.?,[1]; iPAc,No
same,solubility,"[1]; iPAc, 25 °C, organic solvent or mixture, read-out: Solubility at 25° C.",0.25 mg/mL
same,solubility,"[1]; organic solvent or mixture, 0% DCM in EtOH, room temperature, read-out: Solubility",0.05 mg/mL
same,solubility,"[1]; organic solvent or mixture, 0% DMSO in EtOH, room temperature, read-out: Solubility",0.05 mg/mL
same,solubility,"[1]; organic solvent or mixture, 10% DCM in EtOH, room temperature, read-out: Solubility",0.06 mg/mL
same,solubility,"[1]; organic solvent or mixture, 10% DMSO in EtOH, room temperature, read-out: Solubility",0.09 mg/mL
same,solubility,"[1]; organic solvent or mixture, 10% THF in EtOH, room temperature, read-out: Solubility",0.29 mg/mL
same,solubility,"[1]; organic solvent or mixture, 100% DCM in EtOH, room temperature, read-out: Solubility",17.3 mg/mL
same,solubility,"[1]; organic solvent or mixture, DMA, 60° C., read-out: Solubility at 60° C.",> 40 mg/mL
same,solubility,"[1]; organic solvent or mixture, THF, 60° C., read-out: Solubility at 60° C.",10.2 to 13 mg/mL
same,Solids dissolve at 60° C.?,[1]; toluene,No
same,solubility,"[1]; toluene, 25 °C, organic solvent or mixture, read-out: Solubility at 25° C.",0.35 mg/mL
same,solubility,"[1]; water, 25 °C, water, read-out: Solubility at 25° C.",0.07 mg/mL
same,Solubility (in words),[2]; 4:1 DCM/EtOH (100 vol),dissolve
same,Solubility (in words),"[2]; THF, EtOH, and 1:1 DCM/EtOH (100 vol)",limited solubility
